From publication PMC6572064, “Discovery of 2-(1-(3-(4-Chloroxyphenyl)-3-oxo- propyl)pyrrolidine-3-yl)-1H-benzo[d]imidazole-4-carboxamide: A Potent Poly(ADP-ribose) Polymerase (PARP) Inhibitor for Treatment of Cancer” (Molecules, 2019)
Where two headings read alike, the source gives them in different places.

Experiments:
[1] = biological target: T1, PARP-1 (Homo sapiens, UniProt P09874); assay: PARP-1 inhibition assay (PARP-1 Chemiluminescent Assay Kit, BPS Bioscience); format: biochemical; settings: for inhibition at 0.01 µM: 10 nM compound
T1 construct: purchased BPS Bioscience 80569
Description: (§1) The PARP-1 and PARP-2 inhibition assays were performed in outsourcing, by a CRO company, Shanghai Medicilon Inc. (Shanghai, China). […] Briefly, PARP-1 or PARP-2 biotinylated substrate was incubated with compounds or solvent control at varying concentrations and an assay buffer containing the PARP-1 or PARP-2 enzyme.

[2] = biological target: T2, PARP-2 (Homo sapiens, UniProt Q9UGN5); assay: PARP-2 inhibition assay (PARP-2 Chemiluminescent Assay Kit, BPS Bioscience); format: biochemical; settings: for inhibition at 0.01 µM: 10 nM compound
T2 construct: purchased BPS Bioscience 80552
Description: as §1

[3] = system: MDA-MB-436 (a BRCA-1-mutated breast cancer cell line); assay: Cell proliferation assay, three-day, CellTiter-Glo, MDA-MB-436; format: cell-based; settings: for inhibition at 0.00508 µM / inhibition at 0.0152 µM / inhibition at 0.0457 µM / inhibition at 0.41 µM / inhibition at 1.23 µM / inhibition at 3.7 µM / inhibition at 11.11 µM / inhibition at 33.33 µM / inhibition at 100 µM / IC50: Homo sapiens; for inhibition at 0.00508 µM: MDA-MB-436, MDA-MB-436, Conc. 0.00508 uM; for inhibition at 0.0152 µM: MDA-MB-436, MDA-MB-436, Conc. 0.0152 uM; for inhibition at 0.0457 µM: MDA-MB-436, MDA-MB-436, Conc. 0.0457 uM; for inhibition at 0.41 µM: MDA-MB-436, MDA-MB-436, Conc. 0.41 uM; for inhibition at 1.23 µM: MDA-MB-436, MDA-MB-436, Conc. 1.23 uM; for inhibition at 3.7 µM: MDA-MB-436, MDA-MB-436, Conc. 3.70 uM; for inhibition at 11.11 µM: MDA-MB-436, MDA-MB-436, Conc. 11.11 uM; for inhibition at 33.33 µM: MDA-MB-436, MDA-MB-436, Conc. 33.33 uM; for inhibition at 100 µM: MDA-MB-436, MDA-MB-436, Conc. 100.00 uM
How it was run: (§2)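 Cells seeded overnight in 384-well plates, then exposed to compounds (DMSO stock diluted in medium) for 72 h at 37 °C, 5% CO2. Viability read as CellTiter-Glo luminescence after 60 min at room temperature.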

[4] = system: CAPAN-1 (a BRCA-2-mutated pancreatic cancer cell line); assay: Cell proliferation assay, three-day, CellTiter-Glo, CAPAN-1; format: cell-based; settings: for IC50 / inhibition at 0.00508 µM / inhibition at 0.0152 µM / inhibition at 0.0457 µM / inhibition at […] / inhibition at 0.41 µM / inhibition at 1.23 µM / inhibition at 3.7 µM / inhibition at 11.11 µM / inhibition at 33.33 µM / inhibition at 100 µM: Homo sapiens; for inhibition at 0.00508 µM: CAPAN-1, 0.00508 uM; for inhibition at 0.0152 µM: CAPAN-1, 0.0152 uM; for inhibition at 0.0457 µM: CAPAN-1, 0.0457 uM; for inhibition at […]: CAPAN-1, 0.14 uM; for inhibition at 0.41 µM: CAPAN-1, 0.41 uM; for inhibition at 1.23 µM: CAPAN-1, 1.23 uM; for inhibition at 3.7 µM: CAPAN-1, 3.70 uM; for inhibition at 11.11 µM: CAPAN-1, 11.11 uM; for inhibition at 33.33 µM: CAPAN-1, 33.33 uM; for inhibition at 100 µM: CAPAN-1, 100.00 uM
How it was run: as §2

T1 sequence (P09874 whole entry): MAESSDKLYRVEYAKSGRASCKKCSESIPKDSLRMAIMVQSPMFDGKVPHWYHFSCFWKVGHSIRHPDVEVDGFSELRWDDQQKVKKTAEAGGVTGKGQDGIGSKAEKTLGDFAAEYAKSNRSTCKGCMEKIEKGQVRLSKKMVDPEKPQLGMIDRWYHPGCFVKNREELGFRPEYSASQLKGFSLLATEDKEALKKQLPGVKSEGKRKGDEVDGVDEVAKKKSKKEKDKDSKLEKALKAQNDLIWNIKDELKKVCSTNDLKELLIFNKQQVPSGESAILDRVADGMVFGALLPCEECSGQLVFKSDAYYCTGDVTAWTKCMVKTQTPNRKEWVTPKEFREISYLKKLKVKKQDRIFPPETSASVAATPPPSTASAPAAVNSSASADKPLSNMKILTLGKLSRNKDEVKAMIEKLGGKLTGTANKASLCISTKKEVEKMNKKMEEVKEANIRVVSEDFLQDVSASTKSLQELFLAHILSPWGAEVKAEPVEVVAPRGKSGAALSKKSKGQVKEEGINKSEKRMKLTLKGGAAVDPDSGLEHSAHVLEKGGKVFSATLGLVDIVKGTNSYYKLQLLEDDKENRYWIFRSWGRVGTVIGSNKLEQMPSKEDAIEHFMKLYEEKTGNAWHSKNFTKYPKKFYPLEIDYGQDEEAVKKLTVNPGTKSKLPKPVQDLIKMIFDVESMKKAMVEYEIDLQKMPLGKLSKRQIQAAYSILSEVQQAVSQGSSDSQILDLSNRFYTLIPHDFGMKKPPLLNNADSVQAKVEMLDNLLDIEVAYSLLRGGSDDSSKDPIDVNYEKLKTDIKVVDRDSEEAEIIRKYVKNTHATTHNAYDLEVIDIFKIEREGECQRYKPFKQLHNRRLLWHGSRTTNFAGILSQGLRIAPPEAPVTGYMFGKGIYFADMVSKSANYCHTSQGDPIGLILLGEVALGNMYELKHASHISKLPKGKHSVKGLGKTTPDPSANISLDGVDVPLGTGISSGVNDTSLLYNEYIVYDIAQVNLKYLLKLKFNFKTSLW
T2 sequence (Q9UGN5 whole entry): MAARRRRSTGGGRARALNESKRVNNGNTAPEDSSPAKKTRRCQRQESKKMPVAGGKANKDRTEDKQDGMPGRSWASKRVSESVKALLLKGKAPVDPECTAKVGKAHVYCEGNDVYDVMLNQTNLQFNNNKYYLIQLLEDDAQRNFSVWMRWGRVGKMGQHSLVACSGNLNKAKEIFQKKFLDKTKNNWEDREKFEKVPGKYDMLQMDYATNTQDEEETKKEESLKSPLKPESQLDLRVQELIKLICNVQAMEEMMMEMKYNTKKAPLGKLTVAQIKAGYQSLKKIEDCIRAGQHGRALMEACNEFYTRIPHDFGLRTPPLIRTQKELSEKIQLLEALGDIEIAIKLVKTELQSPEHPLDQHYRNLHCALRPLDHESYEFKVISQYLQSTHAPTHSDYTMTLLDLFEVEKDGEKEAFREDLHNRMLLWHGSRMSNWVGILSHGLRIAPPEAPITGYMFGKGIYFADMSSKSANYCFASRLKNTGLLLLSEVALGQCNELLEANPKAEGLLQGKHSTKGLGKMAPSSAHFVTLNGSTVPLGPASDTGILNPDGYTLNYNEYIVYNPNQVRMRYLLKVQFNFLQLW

NC(=O)c1cccc2[nH]c(C3CCN(CCCC(=O)c4ccccc4)C3)nc12 (centres unmarked) [Compound 5cc, 2-(1-(4-Oxo-4-phenylbutyl)pyrrolidin-3-yl)-1H-benzo[d]imidazole-4-carboxamide]
inhibition at 0.01 µM ([1]; supplement sheet, read-out: 10 nM inhibition% PAPR-1): 42.8%
inhibition at 0.01 µM ([1]; read-out: PARP-1 Inhibition % (10 nM)): 42.8%
IC50 ([1]; read-out: PARP-1 IC50): 0.0122 µM
IC50 ([1]; supplement sheet, read-out: IC50 PAPR-1): 0.0122 µM
inhibition at 0.01 µM ([2]; supplement sheet, read-out: 10 nM inhibition% PAPR-2): 62.3%
inhibition at 0.01 µM ([2]; read-out: PARP-2 Inhibition % (10 nM)): 62.3%
IC50 ([2]; read-out: PARP-2 IC50): 0.0058 µM
IC50 ([2]; supplement sheet, read-out: IC50 PAPR-2): 0.00576 µM
inhibition at 0.00508 µM ([3]; replicate 1, read-out: Inh % 1): -5%
inhibition at 0.00508 µM ([3]; replicate 2, read-out: Inh % 2): -0.000277%
inhibition at 0.0152 µM ([3]; replicate 1, read-out: Inh % 1): -5.6%
inhibition at 0.0152 µM ([3]; replicate 2, read-out: Inh % 2): -6.4%
inhibition at 0.0457 µM ([3]; replicate 1, read-out: Inh % 1): -12.8%
inhibition at 0.0457 µM ([3]; replicate 2, read-out: Inh % 2): -9.3%
inhibition at 0.41 µM ([3]; replicate 1, read-out: Inh % 1): -7.7%
inhibition at 0.41 µM ([3]; replicate 2, read-out: Inh % 2): -9%
inhibition at 1.23 µM ([3]; replicate 1, read-out: Inh % 1): -9.6%
inhibition at 1.23 µM ([3]; replicate 2, read-out: Inh % 2): -10.8%
inhibition at 3.7 µM ([3]; replicate 1, read-out: Inh % 1): -9.3%
inhibition at 3.7 µM ([3]; replicate 2, read-out: Inh % 2): -9.7%
inhibition at 11.11 µM ([3]; replicate 1, read-out: Inh % 1): -6.6%
inhibition at 11.11 µM ([3]; replicate 2, read-out: Inh % 2): -8.1%
inhibition at 33.33 µM ([3]; replicate 1, read-out: Inh % 1): 62%
inhibition at 33.33 µM ([3]; replicate 2, read-out: Inh % 2): 38.7%
inhibition at 100 µM ([3]; replicate 1, read-out: Inh % 1): 99.6%
inhibition at 100 µM ([3]; replicate 2, read-out: Inh % 2): 99.3%
IC50 ([3]; MDA-MB-436, 72 h, CellTiter-Glo, read-out: MDA-MB-436 IC50): 31.9 µM
IC50 ([3]; MDA-MB-436, 72 h, supplement Summary sheet, read-out: IC50): 31.9 µM
IC50 ([3]; MDA-MB-436, curve fit list, no unit in the cell, concentration in uM, read-out: IC50): 31.9 µM
LogIC50 ([3]; MDA-MB-436, curve fit on Log (uM) concentrations): 1.504
Bottom ([3]; MDA-MB-436, curve fit parameter (Inh %)): -8.27
Top ([3]; MDA-MB-436, curve fit parameter (Inh %), '= 100.0' is a constrained value): 100
LogIC50 ([4]; CAPAN-1, curve-fit output, Log (uM)): 1.317
IC50 ([4]; CAPAN-1, 72 h, CellTiter-Glo, read-out: CAPAN-1 IC50): 20.7 µM
inhibition at 0.00508 µM ([4]; replicate 1, read-out: Inh % 1): -7.2%
inhibition at 0.00508 µM ([4]; replicate 2, read-out: Inh % 2): 1.2%
inhibition at 0.0152 µM ([4]; replicate 1, read-out: Inh % 1): 1.3%
inhibition at 0.0152 µM ([4]; replicate 2, read-out: Inh % 2): 4.1%
inhibition at 0.0457 µM ([4]; replicate 1, read-out: Inh % 1): 1.4%
inhibition at 0.0457 µM ([4]; replicate 2, read-out: Inh % 2): 9%
inhibition at […] ([4]; replicate 1, read-out: Inh % 1): 8.1%
inhibition at […] ([4]; replicate 2, read-out: Inh % 2): 7.4%
inhibition at 0.41 µM ([4]; replicate 1, read-out: Inh % 1): 22.4%
inhibition at 0.41 µM ([4]; replicate 2, read-out: Inh % 2): 6.9%
inhibition at 1.23 µM ([4]; replicate 1, read-out: Inh % 1): 18%
inhibition at 1.23 µM ([4]; replicate 2, read-out: Inh % 2): 5.8%
inhibition at 3.7 µM ([4]; replicate 1, read-out: Inh % 1): 5.7%
inhibition at 3.7 µM ([4]; replicate 2, read-out: Inh % 2): 1.6%
inhibition at 11.11 µM ([4]; replicate 1, read-out: Inh % 1): 14.5%
inhibition at 11.11 µM ([4]; replicate 2, read-out: Inh % 2): 8.2%
inhibition at 33.33 µM ([4]; replicate 1, read-out: Inh % 1): 93.8%
inhibition at 33.33 µM ([4]; replicate 2, read-out: Inh % 2): 86.5%
inhibition at 100 µM ([4]; replicate 1, read-out: Inh % 1): 100%
inhibition at 100 µM ([4]; replicate 2, read-out: Inh % 2): 99.5%
IC50 ([4]; CAPAN-1, 72 h, supplement Summary sheet, read-out: IC50): 20.7 µM
IC50 ([4]; CAPAN-1, curve-fit output, concentrations in uM, read-out: IC50): 20.7 µM
